According to US12617799B2, “Pyrazolopyrimidinone compounds” (Orphagen Pharmaceuticals, Inc., priority 2021, dated 2026):
pEC50: −log10 of the molar value. Like-named read-outs stand apart in the source and are kept apart here.

Assays:
human SF-1 = molecular target: T1, human SF-1 (Homo sapiens, UniProt Q13285); assay: SF-1 Luc assay (Gal4DBD-SF-1LBD luciferase reporter in transfected CHO-K1 cells); format: cell-based; details: for pEC50: CHO-K1 cells transfected with GAL4-SF-1 plasmid, 40 hours incubation, read-out: hSF-1-Luc: EC50
T1 construct: expressed in transfected cells; host or cells: CHO-K1 cells (Chinese hamster ovary), transient cotransfection with pG5luc
Text: BamHI and XbaI sites introduced by the primers […] (forward) and […] (reverse) were used for subcloning the amplicon into pFA-CMV.
Cells were routinely cultured by splitting them from 1:10 to 1:20. […] Four hours after transfection, cells were trypsinized and suspended to a concentration of 1.6×10^5 cells/ml in supplemented Ham's F-12 media.
Assays: The collected cells were resuspended in the culture medium and plated into a 384 well-white plate (Corning Life Sciences, Acton, MA) at 8,000 cells/50 μL/well.
Measurement of SF-1 Transcriptional Activity: SF-1 transcriptional activity was detected as the intracellular Luc activity using SteadyLite Plus HTS Reporter Gene Assay System. After the measurement of the cell viability, the culture media in the 384 well-plate were completely removed. Then, 30 μL of the Luc substrate solution was added into each well and incubated for 10 min at room temperature. After the incubation, luminescence of each well was measured by a microplate reader.
Calculation of the SF-1 Transcriptional Activity (% of Control): The % of control for the transcriptional activity was calculated according to the following equation: % of control=A/B×100 Equation • A: luminescence count in the test article-treated CHO cells transfected with GAL4-SF-1 plasmid • B: mean luminescence count in the vehicle-treated CHO cells transfected with GAL4-SF-1 plasmid

[1] = system: rat Leydig tumor cell line R2C; assay: R2C proliferation assay for SF-1 antagonists (EdU incorporation); format: cell-based; details: for pEC50: read-out: R2C: EC50; for inhibition at 8 µM: Leydig
Experimental: SF-1 regulates progenitor cell formation and survival in adult Leydig cells. Anti-proliferative effects of SF-1 antagonists using a SF-1+ rat Leydig tumor cell line, R2C, was investigated. Cell proliferation was measured by detecting DNA incorporation of EdU, a nucleoside analogue that can be fluorescently tagged after cell fixation.
Proliferation of the rat Leydig tumor cell line R2C (ATCC® CCL-97™) was assessed using 5-ethynyl-2′-deoxyuridine (EdU), a nucleoside analogue incorporated during DNA synthesis that can be fluorescently tagged after cell fixation. Cycloheximide, a protein synthesis inhibitor, was used as a positive control for the assay.
R2C cells are maintained according to a protocol provided by the American Type Culture Collection (ATCC). At the time of assay, R2C cells were diluted to 1.0 million cells/mL with culture medium (F12 medium supplemented with 2% FBS and 1% Penicillin-Streptomycin) and 50 uL of cell suspension seeded into each well of 384-well clear bottom plates. The assay plates were incubated in a humidified, 37° C., 6% CO2 atmosphere for 24 hours. Serially diluted SF-1 antagonists, cycloheximide or vehicle (DMSO) were then applied to the R2C cells and incubated in a humidified, 37° C., 6% CO2 atmosphere for two days. EdU (Invitrogen), at a final concentration of 5 μM, was added to the cells and incubated for an additional 16 hours, after which cells were fixed with 10% formalin.
Cells were then washed and permeabilized in 0.5% TritonX-100/PBS solution at RT for 1 hour. EdU incorporation was detected by labeling EdU with 6-FAM azide (Lumiprobe) using a copper (I)-catalyzed Click reaction between an azide and alkyne. The reaction mixture consists of 5 mM ascorbic acid, 1 mM CuSO4, 1 μM 6-FAM azide dissolved in PBS buffer. […] For data normalization, the average fluorescence of DMSO wells was defined as 100%, and average fluorescence of 10 μM cycloheximide wells was defined as 0%. Curve fitting and EC50 determination were performed using the variable slope sigmoidal dose-response analysis.
R2C cells were routinely cultured in R2C culture medium. To assay SF-1 antagonist inhibitory activity, R2C cells were resuspended in the R2C plating medium and plated into a 384 well-clear bottom black plate at 20,000 cells/50 μL/well. […] 10 μL EdU plating solution were then dispensed into each well of assay plate incubated at 37° C., 6% CO2 for two days.
R2C proliferation is measured by detecting the fluorescent labelled EdU. The R2C assay plates were fixed by dispense 60 μL of 10% formalin into each well, and the plates were incubated at room temperature for 1 hour on an orbital shaker. The plates were washed with 80 μL of PBS three times, and cells were permeabilized by treating with 100 μL of PBS-0.5% TritonX-100 at RT for 1 hour on an orbital shaker. The plates were washed with 80 μL of PBS three times, and after the last wash, 25 μL of PBS was dispensed into each well. 25 μL of 2× mounting mix solution was then added into each well of fixed cells, and the plates were incubated at RT for 30 min in the dark on an orbital shaker. The cells were washed with 80 μL of PBS, three times, and after the last wash, 25 μL of PBS was dispensed into each well. […] The cells were washed with 80 μL of PBS, three times, and after the last wash, 50 μL of PBS was dispensed into each well. Assay plates were sealed with aluminum foil, and fluorescence was measured using a Envision microplate reader.
The % of control for the proliferation activity was calculated according to the following equation: % of control=100×(A−C)/(B−C) Equation • A: fluorescence count in the test article-treated R2C cells • B: mean fluorescence count in the vehicle-treated R2C cells • C: mean fluorescence count in the 10 μM cycloheximide-treated R2C cells

T1 sequence (Q13285 198-461 limits assumed): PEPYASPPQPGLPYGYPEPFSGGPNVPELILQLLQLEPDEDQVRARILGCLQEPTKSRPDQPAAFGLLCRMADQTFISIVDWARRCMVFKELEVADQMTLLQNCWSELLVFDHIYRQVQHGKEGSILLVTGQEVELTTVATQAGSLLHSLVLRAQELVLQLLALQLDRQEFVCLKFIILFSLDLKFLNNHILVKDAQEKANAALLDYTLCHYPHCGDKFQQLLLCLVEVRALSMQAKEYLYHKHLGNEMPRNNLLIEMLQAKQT

| SMILES | pEC50 (human SF-1) | pEC50 ([1]; R2C cells, EdU incorporation) | pEC50 ([1]; R2C) | inhibition at 8 µM [1] [%] | inhibition at 8 µM (human SF-1; CHO-K1, read-out: hSF-1-Luc: inhibition at 8 uM) [%] |
| --- | --- | --- | --- | --- | --- |
| Cn1nc(Nc2ccc(C(F)(F)F)cc2)c2ncn(CC(=O)N[C@H]3CC[C@H](OCC(C)(C)O)CC3)c(=O)c21 [Compound 24, N-((trans)-4-(2-hydroxy-2-methylpropoxy)cyclohexyl)-2-(1-methyl-7-oxo-3-((4-(trifluoromethyl)phenyl)amino)-1,7-dihydro-6H-pyrazolo[4,3-d]pyrimidin-6-yl)acetamide] | > 6.70 | > 6.70 |  |  |  |
| Cn1nc(Nc2ccc(C(F)(F)F)cc2)c2ncn(CC(=O)N[C@H]3CC[C@H](C(C)(C)CO)CC3)c(=O)c21 [Compound 27, N-((trans)-4-(1-hydroxy-2-methylpropan-2-yl)cyclohexyl)-2-(1-methyl-7-oxo-3-((4-(trifluoromethyl)phenyl)amino)-1,7-dihydro-6H-pyrazolo[4,3-d]pyrimidin-6-yl)acetamide] | > 6.70 | > 6.70 |  |  |  |
| Cn1nc(Nc2ccc(C(F)(F)F)cc2)c2ncn(CC(=O)N[C@H]3CC[C@H](O)CC3)c(=O)c21 [Compound 28, N-((trans)-4-hydroxycyclohexyl)-2-(1-methyl-7-oxo-3-((4-(trifluoromethyl)phenyl)amino)-1,7-dihydro-6H-pyrazolo[4,3-d]pyrimidin-6-yl)acetamide] | 6.00 to 6.70 | 5.00 to 6.00 |  |  |  |
| Cn1nc(Nc2ccc(C(F)(F)F)cc2)c2ncn(CC(=O)N[C@H]3CC[C@H](OC(F)F)CC3)c(=O)c21 [Compound 32, N-((1r,4r)-4-(difluoromethoxy)cyclohexyl)-2-(1-methyl-7-oxo-3-((4-(trifluoromethyl)phenyl)amino)-1,7-dihydro-6H-pyrazolo[4,3-d]pyrimidin-6-yl)acetamide] | > 6.70 |  | > 6.70 |  |  |
| Cn1nc(Nc2ccc(C(F)(F)F)cc2)c2ncn(CC(=O)N[C@H]3CC[C@@H](OC(F)F)CC3)c(=O)c21 [Compound 36, N-((1s,4s)-4-(difluoromethoxy)cyclohexyl)-2-(1-methyl-7-oxo-3-((4-(trifluoromethyl)phenyl)amino)-1,7-dihydro-6H-pyrazolo[4,3-d]pyrimidin-6-yl)acetamide] | > 6.70 |  | 6.00 to 6.70 |  |  |
| Cn1nc(Nc2ccc(C(F)(F)F)cc2)c2ncn(CC(=O)N[C@H]3CC[C@H](OCC4CCOCC4)CC3)c(=O)c21 [Compound 39, 2-(1-methyl-7-oxo-3-((4-(trifluoromethyl)phenyl)amino)-1,7-dihydro-6H-pyrazolo[4,3-d]pyrimidin-6-yl)-N-((1r,4r)-4-((tetrahydro-2H-pyran-4-yl)methoxy)cyclohexyl)acetamide] | > 6.70 | > 6.70 |  |  |  |
| Cn1nc(Nc2ccc(C(F)(F)F)cn2)c2ncn(CC(=O)N[C@H]3CC[C@H](OCC(C)(C)O)CC3)c(=O)c21 [Compound 52, N-((1r,4r)-4-(2-hydroxy-2-methylpropoxy)cyclohexyl)-2-(1-methyl-7-oxo-3-((5-(trifluoromethyl)pyridin-2-yl)amino)-1,7-dihydro-6H-pyrazolo[4,3-d]pyrimidin-6-yl)acetamide] | 5.00 to 6.00 |  |  | 72 |  |
| Cn1nc(Nc2ccc(C(F)(F)F)cn2)c2ncn(CC(=O)N[C@H]3CC[C@H](OC(F)F)CC3)c(=O)c21 [Compound 55, N-((1r,4r)-4-(difluoromethoxy)cyclohexyl)-2-(1-methyl-7-oxo-3-((5-(trifluoromethyl)pyridin-2-yl)amino)-1,7-dihydro-6H-pyrazolo[4,3-d]pyrimidin-6-yl)acetamide] | 6.00 to 6.70 | 5.00 to 6.00 |  |  |  |
| COc1ccc(NC(=O)Cn2cnc3c(Nc4ccc(C(F)(F)F)cn4)n[nH]c3c2=O)cc1F [Compound 63, N-(3-fluoro-4-methoxyphenyl)-2-(7-oxo-3-((5-(trifluoromethyl)pyridin-2-yl)amino)-1,7-dihydro-6H-pyrazolo[4,3-d]pyrimidin-6-yl)acetamide] |  |  |  | 19 | 75 |
| COc1ccc(NC(=O)Cn2cnc3c(Nc4ccc(C(F)(F)F)cn4)nn(C)c3c2=O)cc1F [Compound 64, N-(3-fluoro-4-methoxyphenyl)-2-(1-methyl-7-oxo-3-((5-(trifluoromethyl)pyridin-2-yl)amino)-1,7-dihydro-6H-pyrazolo[4,3-d]pyrimidin-6-yl)acetamide] | 5.00 to 6.00 | 5.00 to 6.00 |  |  |  |
| Cn1nc(Nc2ccc(C(F)(F)F)nc2)c2ncn(CC(=O)N[C@H]3CC[C@H](OC(F)F)CC3)c(=O)c21 [Compound 65, N-((1r,4r)-4-(difluoromethoxy)cyclohexyl)-2-(1-methyl-7-oxo-3-((6-(trifluoromethyl)pyridin-3-yl)amino)-1,7-dihydro-6H-pyrazolo[4,3-d]pyrimidin-6-yl)acetamide] | > 6.70 | 6.00 to 6.70 |  |  |  |
| Cn1nc(Nc2ccc(C(F)(F)F)nc2)c2ncn(CC(=O)N[C@H]3CC[C@H](OCC(C)(C)O)CC3)c(=O)c21 [Compound 68, N-((1r,4r)-4-(2-hydroxy-2-methylpropoxy)cyclohexyl)-2-(1-methyl-7-oxo-3-((6-(trifluoromethyl)pyridin-3-yl)amino)-1,7-dihydro-6H-pyrazolo[4,3-d]pyrimidin-6-yl)acetamide] | 6.00 to 6.70 | 5.00 to 6.00 |  |  |  |
| COc1ccc(NC(=O)Cn2cnc3c(Nc4ccc(OC(C)C)cc4)nn(C)c3c2=O)cc1F [Compound 70, N-(3-fluoro-4-methoxyphenyl)-2-(3-((4-isopropoxyphenyl)amino)-1-methyl-7-oxo-1,7-dihydro-6H-pyrazolo[4,3-d]pyrimidin-6-yl)acetamide] | > 6.70 | 5.00 to 6.00 |  |  |  |
| COc1ccc(NC(=O)Cn2cnc3c(Nc4ccc(Cl)cc4)nn(C)c3c2=O)cc1F [Compound 71, 2-(3-((4-chlorophenyl)amino)-1-methyl-7-oxo-1,7-dihydro-6H-pyrazolo[4,3-d]pyrimidin-6-yl)-N-(3-fluoro-4-methoxyphenyl)acetamide] | > 6.70 |  | > 6.70 |  |  |
| CCn1nc(Nc2ccc(C(F)(F)F)cc2)c2ncn(CC(=O)Nc3ccc(OC)c(F)c3)c(=O)c21 [Compound 77, 2-(1-ethyl-7-oxo-3-((4-(trifluoromethyl)phenyl)amino)-1,7-dihydro-6H-pyrazolo[4,3-d]pyrimidin-6-yl)-N-(3-fluoro-4-methoxyphenyl)acetamide] | > 6.70 |  | > 6.70 |  |  |
| CCn1nc(Nc2ccc(C(F)(F)F)cc2)c2ncn(CC(=O)N[C@H]3CC[C@H](OC(F)F)CC3)c(=O)c21 [Compound 80, N-((1r,4r)-4-(difluoromethoxy)cyclohexyl)-2-(1-ethyl-7-oxo-3-((4-(trifluoromethyl)phenyl)amino)-1,7-dihydro-6H-pyrazolo[4,3-d]pyrimidin-6-yl)acetamide] | > 6.70 |  | > 6.70 |  |  |
